Data as given in patent publication US20210079476A1, “BIOMARKERS OF RENAL OSTEODYSTROPHY TYPE” (The Trustees of Columbia University in the City of New York, priority 2018, published 2021).
Entries after “also recorded” stand apart in the source; their conditions may differ.

Tests used:
Cy/+ (CKD) rat = conditions: Cy/+ CKD rat model; cited from earlier work
[1] = tested on: miRNA 30b, 30c, 125b and 155; format: in vivo, rat; conditions: CKD rats
Text: (§1) The Cy/+ rat model of CKD was used to assess bone expression of miRNAs. Cy/+ rats are characterized by an autosomal dominant progressive cystic kidney disease that is […] with human ADPKD(63). […] The Cy/+IU colony of rats has been bred for nearly 20 years. The model recapitulates CKD-MBD with progressive kidney disease, hyperphosphatemia, secondary hyperparathyroidism, elevated FGF-23, resulting in ROD and vascular calcification. Importantly, the slowly progressive nature of the model allows for examination of interventions that differentially affect bone remodeling. […] In brief, CKD animals (n=8-10 each group) began treatment at 25 weeks for a total of 10 weeks and received 1) no treatment (control CKD=high PTH/high turnover, 2) 3% calcium in the drinking water (CKD/Ca group=low PTH/low turnover), or 3) a single injection of zoledronic acid (CKD/Zol group=high PTH/low turnover). At 35 weeks of age, animals were euthanized and bone tissue were collected. Bone histomorphometry as previously reported (67). RNA was isolated from tibia and bone miRNA expression determined by real time PCR using TaqMan miRNA assay as above.
The Cy/+ rat model of CKD was used to assess bone expression of miRNAs. […] The Cy/+IU colony of rats has been bred at Indiana University for nearly 20 years. The model recapitulates CKD-MBD with progressive kidney disease, hyperphosphatemia, secondary hyperparathyroidism, elevated FGF-23, resulting in ROD and vascular calcification. Importantly, the slowly progressive nature of the model allows for examination of interventions that differentially affect bone remodeling. Specifically, we have induced low turnover bone remodeling by two methods: with calcium in the drinking water (calcium binders) and zoledronic acid.^41, 42 In brief, CKD animals (n=8 to 10 each group) began treatment at 25 weeks for a total of 10 weeks and received: (i) no treatment (control CKD=high PTH/high turnover; (ii) 3% calcium in the drinking water (CKD/Ca group=low PTH/low turnover); or (iii) a single injection of 20 μg/kg of zoledronic acid (CKD/Zol group=high PTH/low turnover). At 35 weeks of age, animals were euthanized and bone tissue was collected. Bone histomorphometry was performed as previously reported.^43 RNA was isolated from tibia, and bone miRNA expression was determined by real-time PCR using TaqMan miRNA assay as described above. All procedures were reviewed and approved by the Indiana University School of Medicine Institutional Animal Care and Use Committee.

CKD rats (Cy/+) [2] = conditions: Cy/+ rat model; cited from earlier work
CKD rats (Cy/+) [3] = assay: Cy/+ rat model of CKD: bone turnover by histomorphometry after treatment; format: in vivo
Text: as §1
The Cy/+ rat model of CKD was used to assess bone expression of miRNAs. […] The Cy/+IU colony of rats has been bred at Indiana University for nearly 20 years. […]

SMILES	suppressing bone turnover (Cy/+ (CKD) rat)	levels of miRNAs, low turnover induced by dietary calcium compared with zoledronic acid ([1]; bone tissue)	bone-tissue expression of miRNA-30b vs rats with high turnover ([1]; tibia, 35 weeks of age)	bone-tissue expression of miRNA-30c vs rats with high turnover ([1]; tibia, 35 weeks of age)	bone-tissue expression of miRNA-125b vs rats with high turnover ([1]; tibia, 35 weeks of age)	bone-tissue expression of miRNA-155 vs rats with high turnover ([1]; tibia, 35 weeks of age)	induction of low turnover bone remodeling (CKD rats (Cy/+) [2])	PTH status of the treated group (CKD rats (Cy/+) [3]; same treatment groups, untreated CKD = high PTH)	type of bone turnover induced by the intervention (histomorphometry) (CKD rats (Cy/+) [3]; treatment from 25 weeks of age for 10 weeks, 3% calcium in drinking water or single injection of zoledronic acid, untreated CKD = high turnover)
C=C1/C(=C\C=C2/CCC[C@]3(C)[C@@H]([C@H](C)CCCC(C)(C)O)CC[C@@H]23)C[C@@H](O)C[C@@H]1O [Calcitriol]	not effective								
[Ca+2] [calcium]		did not differ	low expression; also recorded: lower	low expression; also recorded: lower	low expression; also recorded: lower	low expression; also recorded: lower	low turnover bone remodeling has been induced	low PTH	low turnover
